Key:
[1] = test system: P. falciparum 3D7 trophozoites; test: Metabolomic fingerprint profiling LC-MS; type: cell-based, Plasmodium falciparum; set-up: UDP-D-glucose / ADP-D-glucose: unit not given here; conditions: for Acetyllysine / N-acetyl-L-ornithine / N-carbamoyl-L-aspartate / NADPH / dAMP / dCMP / dTDP / dTMP / dTTP / dihydroorotate / orotate / DLH / DLS/SDL/SID / PD / PEE / PVNF / 3-phosphoglycerate / ADP-D-glucose / ATP / CDP / D-sedoheptulose-1/7-phosphate / FAD / GMP / NAD+ / NADP+ / Octoluse Bisphosphate / Pyroglutamic acid / UDP-D-glucose / UDP-D-glucuronate / UDP-N-acetyl-glucosamine / UDP / UMP / UTP / a-ketoglutarate / citrate/isocitrate / cytidine / dATP / dGMP/AMP / fumarate / glucose-1/6-phosphate / glycerate / guanine / guanosine / hypoxanthine / indole / inosine / nicotinate / ornithine / phosphoenolpyruvate / pyruvate / ribose-phosphate / sarcosine/alanine / sn-glycerol-3-phosphate / succinate/methylmalonic acid / uridine / xanthosine: S2 Table Metabolomics; for Acetyllysine: metabolite Acetyllysine; for N-acetyl-L-ornithine: metabolite N-acetyl-L-ornithine; for N-carbamoyl-L-aspartate: metabolite N-carbamoyl-L-aspartate; for NADPH: metabolite NADPH; for dAMP: metabolite dAMP; for dCMP: metabolite dCMP; for dTDP: metabolite dTDP; for dTMP: metabolite dTMP; for dTTP: metabolite dTTP; for dihydroorotate: metabolite dihydroorotate; for orotate: metabolite orotate; for DLH: peptide DLH; for DLS/SDL/SID: peptide DLS/SDL/SID; for PD: peptide PD; for PEE: peptide PEE; for PVNF: peptide PVNF; for 3-phosphoglycerate: metabolite 3-phosphoglycerate; for ADP-D-glucose: metabolite ADP-D-glucose; for ATP: metabolite ATP; for CDP: metabolite CDP; for CDP / D-sedoheptulose-1/7-phosphate / GMP / Octoluse Bisphosphate / UDP / UMP / UTP / citrate/isocitrate / dGMP/AMP / fumarate / glucose-1/6-phosphate / glycerate / guanine / guanosine / inosine / pyruvate / sarcosine/alanine / succinate/methylmalonic acid / uridine / xanthosine: change in metabolite level after compound treatment; for D-sedoheptulose-1/7-phosphate: metabolite D-sedoheptulose-1/7-phosphate; for FAD: metabolite FAD; for GMP: metabolite GMP; for NAD+: metabolite NAD+; for NADP+: metabolite NADP+; for Octoluse Bisphosphate: metabolite Octoluse Bisphosphate; for Pyroglutamic acid: metabolite Pyroglutamic acid; for UDP-D-glucose: metabolite UDP-D-glucose; for UDP-D-glucuronate: metabolite UDP-D-glucuronate; for UDP-N-acetyl-glucosamine: metabolite UDP-N-acetyl-glucosamine; for UDP: metabolite UDP; for UMP: metabolite UMP; for UTP: metabolite UTP; for a-ketoglutarate: metabolite a-ketoglutarate; for citrate/isocitrate: metabolite citrate/isocitrate; for cytidine: metabolite cytidine; for dATP: metabolite dATP; for dGMP/AMP: metabolite dGMP/AMP; for fumarate: metabolite fumarate; for glucose-1/6-phosphate: metabolite glucose-1/6-phosphate; for glycerate: metabolite glycerate; for guanine: metabolite guanine; for guanosine: metabolite guanosine; for hypoxanthine: metabolite hypoxanthine; for indole: metabolite indole; for inosine: metabolite inosine; for 2_3-Diphosphoglyceric acid / 4-phosphopantothenate / 6-phospho-D-gluconate / FMN / IMP / Pyrophosphate / Sedoheptoluse bisphosphate / cyclic-AMP / glutathione disulfide / lactate / myo-inositol: metabolite level change after treatment; for nicotinate: metabolite nicotinate; for ornithine: metabolite ornithine; for phosphoenolpyruvate: metabolite phosphoenolpyruvate; for pyruvate: metabolite pyruvate; for ribose-phosphate: metabolite ribose-phosphate; for sarcosine/alanine: metabolite sarcosine/alanine; for sn-glycerol-3-phosphate: metabolite sn-glycerol-3-phosphate; for succinate/methylmalonic acid: metabolite succinate/methylmalonic acid; for uridine: metabolite uridine; for xanthosine: metabolite xanthosine
P. falciparum = test: EC50 listed in S2 Table Metabolomics (used to set the concentration tested); type: cell-based; conditions: Plasmodium falciparum; EC50 used for Factor_XEC50 in metabolomics; read-out: EC50_nM

Cc1cccc(Nc2nc(N)c3ccccc3n2)c1 [MMV019110] showed an Acetyllysine [1] of -0.7861, a N-acetyl-L-ornithine [1] of -0.3066 and a N-carbamoyl-L-aspartate [1] of 0.8718. It also gave an NADPH [1] of 1.0636, a dAMP [1] of 0.1705 and a dCMP [1] of -1.068. It also gave a dTDP [1] of -0.2853, a dTMP [1] of -0.4806 and a dTTP [1] of -0.142. The dihydroorotate [1] was 1.069, the orotate [1] was -0.7263 and the DLH [1] was -1.2334. The DLS/SDL/SID [1] was -0.8825, the PD [1] was -0.6502 and the PEE [1] was -0.294. For the same compound, the PVNF [1] was -0.8541, the 3-phosphoglycerate [1] was 0.2769 and the ADP-D-glucose [1] was 0.08672. For the same compound, the ATP [1] was 0.01278, the CDP [1] was -0.4413 and the D-sedoheptulose-1/7-phosphate [1] was -0.5631. For the same compound, the FAD [1] was -0.04154, the GMP [1] was 0.0758 and the “NAD+” value [1] was -0.03841. The “NADP+” value [1] was 0.1589, the “Octoluse Bisphosphate” value [1] was -0.09051 and the Pyroglutamic acid [1] was -0.4571. It also gave a UDP-D-glucose [1] of -0.005349, a UDP-D-glucuronate [1] of 0.1448 and a UDP-N-acetyl-glucosamine [1] of -0.09963. The UDP [1] was -0.5337, the UMP [1] was -0.1391 and the UTP [1] was -0.1864. It also gave an a-ketoglutarate [1] of -0.9521, a citrate/isocitrate [1] of -0.8432 and a cytidine [1] of 0.1554. The dATP [1] was -0.04411, the dGMP/AMP [1] was 0.02273 and the fumarate [1] was -0.3633. It also gave a glucose-1/6-phosphate [1] of -0.2644, a glycerate [1] of -1.224 and a guanine [1] of -1.026. The guanosine [1] was -2.158, the hypoxanthine [1] was -0.00849 and the indole [1] was -0.09763. The inosine [1] was -0.6039, the 2_3-Diphosphoglyceric acid [1] was -0.1372 and the 4-phosphopantothenate [1] was -0.5707. The 6-phospho-D-gluconate [1] was -0.1735, the FMN [1] was 0.07582 and the IMP [1] was -0.3382. For the same compound, the Pyrophosphate [1] was -0.02007, the Sedoheptoluse bisphosphate [1] was -0.1834 and the cyclic-AMP [1] was -0.2741. For the same compound, the glutathione disulfide [1] was -0.5227, the lactate [1] was -1.008 and the myo-inositol [1] was -1.363. The nicotinate [1] was -1.278, the ornithine [1] was 0.0513 and the phosphoenolpyruvate [1] was 0.03081. The pyruvate [1] was -1.488, the ribose-phosphate [1] was -0.08015 and the sarcosine/alanine [1] was -0.6413. It also gave a sn-glycerol-3-phosphate [1] of -0.02952, a succinate/methylmalonic acid [1] of -0.4318 and a uridine [1] of -1.131. It also gave a xanthosine [1] of -0.9126 and an EC50 (P. falciparum) of 400 nM.

Cc1cc(C=C2SC(=Nc3ccccc3)N(C3CCCC3)C2=O)c(C)n1-c1ccc(Cl)cc1 [MMV666688] was tested, and the Acetyllysine [1] was -0.1624, the N-acetyl-L-ornithine [1] was -0.0421 and the N-carbamoyl-L-aspartate [1] was 1.4864. The NADPH [1] was 0.2408, the dAMP [1] was 0.03218 and the dCMP [1] was -0.069. The dTDP [1] was -0.4979, the dTMP [1] was -0.4157 and the dTTP [1] was -0.4815. For the same compound, the dihydroorotate [1] was 2.242, the orotate [1] was -0.3391 and the DLH [1] was -0.1014. It also gave a DLS/SDL/SID [1] of -0.07676, a PD [1] of 0.01194 and a PEE [1] of -0.1091. The PVNF [1] was -0.1399, the 3-phosphoglycerate [1] was -0.02892 and the ADP-D-glucose [1] was -0.07639. For the same compound, the ATP [1] was -0.1967, the CDP [1] was -0.456 and the D-sedoheptulose-1/7-phosphate [1] was -0.2168. The FAD [1] was -0.003318, the GMP [1] was 0.2544 and the “NAD+” value [1] was -0.2173. The “NADP+” value [1] was -0.08704, the “Octoluse Bisphosphate” value [1] was -0.1579 and the Pyroglutamic acid [1] was 0.04307. It also gave a UDP-D-glucose [1] of -0.04445, a UDP-D-glucuronate [1] of -0.08539 and a UDP-N-acetyl-glucosamine [1] of -0.1189. It also gave a UDP [1] of -0.6253, a UMP [1] of -0.03143 and a UTP [1] of -0.1882. The a-ketoglutarate [1] was 0.009693, the citrate/isocitrate [1] was -0.05943 and the cytidine [1] was 0.03268. For the same compound, the dATP [1] was 0.7542, the dGMP/AMP [1] was -0.3421 and the fumarate [1] was -0.03259. For the same compound, the glucose-1/6-phosphate [1] was 0.01665, the glycerate [1] was 0.07227 and the guanine [1] was 0.07709. The guanosine [1] was 0.1849, the hypoxanthine [1] was 0.08201 and the indole [1] was 0.1358. It also gave an inosine [1] of 0.04909, a 2_3-Diphosphoglyceric acid [1] of -0.2563 and a 4-phosphopantothenate [1] of -0.1327. The 6-phospho-D-gluconate [1] was -0.08404, the FMN [1] was -0.1061 and the IMP [1] was -0.002655. It also gave a Pyrophosphate [1] of 0.3465, a Sedoheptoluse bisphosphate [1] of -0.1911 and a cyclic-AMP [1] of -0.1214. It also gave a glutathione disulfide [1] of -0.05112, a lactate [1] of 0.01618 and a myo-inositol [1] of 0.01299. For the same compound, the nicotinate [1] was -0.0155, the ornithine [1] was -0.1088 and the phosphoenolpyruvate [1] was -0.02123. For the same compound, the pyruvate [1] was 0.008296, the ribose-phosphate [1] was -0.004186 and the sarcosine/alanine [1] was -0.1822. The sn-glycerol-3-phosphate [1] was 0.09746, the succinate/methylmalonic acid [1] was -0.05454 and the uridine [1] was -0.08058. For the same compound, the xanthosine [1] was 0.111 and the EC50 (P. falciparum) was 263 nM.

In the case of Cc1ccc(-c2cc3nc4c(c(O)n3n2)CCCC4)cc1 [MMV006937], the Acetyllysine [1] is reported as 0.001543, the N-acetyl-L-ornithine [1] is reported as -0.1685 and the N-carbamoyl-L-aspartate [1] is reported as 1.991. For the same compound, the NADPH [1] was -0.4265, the dAMP [1] was -0.0863 and the dCMP [1] was -1.279. It also gave a dTDP [1] of -1.586, a dTMP [1] of -1.181 and a dTTP [1] of -2.058. For the same compound, the dihydroorotate [1] was 2.759, the orotate [1] was -1.871 and the DLH [1] was -0.331. The DLS/SDL/SID [1] was -0.7353, the PD [1] was 0.3712 and the PEE [1] was -0.2807. The PVNF [1] was -1.612, the 3-phosphoglycerate [1] was -0.6487 and the ADP-D-glucose [1] was -0.1406. The ATP [1] was -0.4135, the CDP [1] was -1.006 and the D-sedoheptulose-1/7-phosphate [1] was 0.1087. The FAD [1] was 0.1332, the GMP [1] was -0.07362 and the “NAD+” value [1] was 1.3162. The “NADP+” value [1] was -0.2641, the “Octoluse Bisphosphate” value [1] was -0.3 and the Pyroglutamic acid [1] was -0.3275. The UDP-D-glucose [1] was -0.04224, the UDP-D-glucuronate [1] was -0.6063 and the UDP-N-acetyl-glucosamine [1] was -0.2962. It also gave a UDP [1] of -1.454, a UMP [1] of -1.3 and a UTP [1] of -2.161. For the same compound, the a-ketoglutarate [1] was -0.5175, the citrate/isocitrate [1] was -0.9752 and the cytidine [1] was 0.2747. It also gave a dATP [1] of 0.08499, a dGMP/AMP [1] of -0.2088 and a fumarate [1] of 0.7624. The glucose-1/6-phosphate [1] was -0.09446, the glycerate [1] was 0.7002 and the guanine [1] was 0.3064. The guanosine [1] was 0.2389, the hypoxanthine [1] was -0.05386 and the indole [1] was -0.1272. It also gave an inosine [1] of -0.07571, a 2_3-Diphosphoglyceric acid [1] of -0.6436 and a 4-phosphopantothenate [1] of -0.3901. For the same compound, the 6-phospho-D-gluconate [1] was -0.1214, the FMN [1] was -0.5746 and the IMP [1] was 0.1416. It also gave a Pyrophosphate [1] of -0.6696, a Sedoheptoluse bisphosphate [1] of 0.01407 and a cyclic-AMP [1] of -0.2332. For the same compound, the glutathione disulfide [1] was 0.02779, the lactate [1] was -0.3487 and the myo-inositol [1] was 0.03438. For the same compound, the nicotinate [1] was -0.2273, the ornithine [1] was -0.08655 and the phosphoenolpyruvate [1] was -0.5043. It also gave a pyruvate [1] of -0.2395, a ribose-phosphate [1] of 0.1461 and a sarcosine/alanine [1] of 0.1551. For the same compound, the sn-glycerol-3-phosphate [1] was -0.1355, the succinate/methylmalonic acid [1] was -0.2134 and the uridine [1] was -0.8059. It also gave a xanthosine [1] of -0.1801 and an EC50 (P. falciparum) of 396 nM.

Source: article PMC4965013, “Open Source Drug Discovery with the Malaria Box Compound Collection for Neglected Diseases and Beyond” (PLoS Pathogens, 2016)
